In US10525133B2, “Aqueous composition comprising at least one protein and one solubilizing agent, preparation thereof and uses thereof” (ADOCIA, priority 2014, dated 2020):

Assays:
[1] = tested on: Nanogam (human immunoglobulins); assay: Reduction in aggregation of Nanogam at its isoelectric point (light scattering at 12.8°, Malvern NanoZS); format: physicochemical; conditions: 40 mg/ml human immunoglobulins, pH 8.5 (pI), relative to Nanogam at pH 4.3
Protocol: The Nanogam formulation is a formulation of human immunoglobulins at 50 mg/ml and at pH 4.3 containing various IgG subclasses (IgG1: 54-70%, IgG2: 29-45%, IgG3: 1-4%, IgG4: 0-0.5%, IgA: at most 6 μg/ml). […] A test with various compounds is therefore carried out at the isoelectric point in order to identify the compounds which make it possible to reduce this aggregation phenomenon.
A commercial solution of Nanogam at 50 mg/ml is used. […] Mixing between the solution of Nanogam and one of the solutions of compound is carried out in order to obtain a solution containing 40 mg/ml of human immunoglobulins and the desired concentration of compound. The pH of the various solutions is adjusted to pH 8.5 by adding hydrochloric acid or sodium hydroxide depending on the pH achieved following the mixing between the compound of interest and the solution of human immunoglobulins.
The mixtures are then analyzed by light scattering on a Malvern NanoZS instrument.
The scattered intensities are measured at 12.8°.

[2] = molecular target: T1, human insulin (Homo sapiens, UniProt P01308); assay: Solubilization of human insulin at its isoelectric point (visual appearance, soluble fraction by RP-HPLC); format: physicochemical; design: key to Visual appearance: Cloudy: If the solution is cloudy, the compound at the concentration tested does not allow total solubilization of human insulin at its isoelectric point; Clear: If the solution is clear, the compound allows total solubilization of human insulin at the concentration tested; conditions: 100 IU/ml human insulin, pH 5.3 (pI)
T1 construct: A solution of human insulin at 500 IU/ml is prepared
Protocol: Human insulin has an isoelectric point (pI) of 5.3. […] A test of solubility at the pI of human insulin with various compounds is carried out. […] Solutions of compounds at various concentrations in water are prepared as described in examples B1 to B4. […] The pH of the various solutions is adjusted to pH 5.3 by adding hydrochloric acid or sodium hydroxide depending on the pH achieved following the mixing between the compound and the solution of human insulin. The appearance of the solution is documented. […] If the solution is clear, the compound allows total solubilization of human insulin at the concentration tested. In addition, the mixtures are centrifuged at 4000 rpm for 10 minutes in a Hereaus Biofuge Pico centrifuge (Rotor #3328) and then filtered through 0.22 μm in order to remove the precipitate. The resulting soluble fractions are then assayed by RP-HPLC (column: Sunfire C18, Waters ref:186003417; mobile phase: sodium phosphate/acetonitrile gradient; detection: UV at 276 nm) with an external insulin range in order to quantify the percentage of soluble insulin at the pI.

[3] = at pH 5.3 (pI); cited from earlier work
[4] = compound 75 mmol/l, molar ratio compound/insulin 125
[5] = compound 750 mmol/l, molar ratio compound/insulin 1250
[6] = compound 180 mmol/l, molar ratio compound/Nanogam 675
[7] = compound 120 mmol/l, molar ratio compound/insulin 200
[8] = compound 300 mmol/l, molar ratio compound/insulin 500
[9] = compound 150 mmol/l, molar ratio compound/insulin 250

T1 sequence (P01308 25-54 limits assumed): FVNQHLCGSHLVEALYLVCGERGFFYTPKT
T1 sequence (P01308 90-110 limits assumed): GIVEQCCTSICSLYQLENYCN

Q: With `N[C@@H](Cc1c[nH]cn1)C(=O)O` [Histidine, L-histidine, reference compound] as the compound, how does the “Iscat 12.8° standardized” value ([1]; compound 40 mmol/l, molar ratio compound/Nanogam 150) read?
A: 80.82

Q: What about the “Soluble insulin recovery (%)” value [2, 4] of the same compound?
A: 48%

Q: What about the Visual appearance [2, 4] of the same compound?
A: Cloudy

Q: What does the source list for `O=C(O)C(O)c1ccccc1` (stereo not drawn) [Mandelic acid]?
A: Iscat 12.8° standardized ([1]; compound 27.5 mmol/l, molar ratio compound/Nanogam 675): 22.15; Soluble insulin recovery (%) [2, 5]: 100%; Visual appearance [2, 5]: Clear

Q: With `CC(=O)O` [Acetic acid, reference compound] as the compound, how does the “Iscat 12.8° standardized” value [1, 6] read?
A: 200.18

Q: For `O=C(CO)N[C@@H](Cc1c[nH]c2ccccc12)C(=O)O` [Molecule A2, N-(2-hydroxyacetyl)-L-tryptophan], which “Soluble insulin recovery (%)” value [2, 7] is on record?
A: 100%

Q: What about the Visual appearance [2, 7] of the same compound?
A: Clear

Q: For `O=C(CO)N[C@@H](Cc1ccccc1)C(=O)O` [Molecule A1, N-(2-hydroxyacetyl)-L-phenylalanine], which “Iscat 12.8° standardized” value ([1]; compound 85 mmol/l, molar ratio compound/Nanogam 320) is on record?
A: 23.5

Q: And the “Soluble insulin recovery (%)” value [2, 8]?
A: 100%

Q: What about the Visual appearance [2, 8] of the same compound?
A: Clear

Q: With `O=C(O)Cc1ccccc1` [Phenylacetic acid] as the compound, how does the “Iscat 12.8° standardized” value [1, 6] read?
A: 20.082

Q: With `CC(Oc1ccccc1)C(=O)O` (stereo not drawn) [2-Phenoxypropionic acid] as the compound, how does the “Iscat 12.8° standardized” value [1, 6] read?
A: 6.38

Q: With `OC[C@H]1O[C@@](CO)(O[C@H]2O[C@H](CO)[C@@H](O)[C@H](O)[C@H]2O)[C@@H](O)[C@@H]1O` [Sucrose, reference compound] as the compound, how does the “Soluble insulin recovery (%)” value [2, 9] read?
A: 67%

Q: And the Visual appearance [2, 9]?
A: Cloudy

Q: What about the “Soluble insulin recovery (%)” value [2, 8] of the same compound?
A: 35%

Q: What about the Visual appearance [2, 8] of the same compound?
A: Cloudy

Q: Which “Concentration at which human insulin precipitates” value [3] does the source give for “Human insulin control: Human insulin at 100 IU/ml, pH 5.3, without solubilizing compound” here?
A: greater than or equal to 10 IU/ml

Q: And the “Soluble insulin recovery (%)” value ([2]; control without compound)?
A: 11%

Q: What about the Visual appearance ([2]; control without compound) of the same compound?
A: Cloudy
